Where “and” joins values, the source holds several entries; their conditions need not be identical. Equal entries are not always repeated.
Molecular target: Nicotinic acetylcholine receptor (Rattus leucopus, UniProt Q62594)
Sequence (Q62594 whole entry): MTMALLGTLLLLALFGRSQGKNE

Row | Compound | Ki
1 | C=C(C=O)C[C@H]1C[C@H](O)[C@]2(C)O[C@@H]3C[C@@H]4O[C@@H]5C[C@]6(C)O[C@]7(C)CC[C@@H]8O[C@@H]9C[C@]%10(C)O[C@@H]%11C(C)=CC(=O)O[C@H]%11C[C@H]%10O[C@H]9C[C@@H](C)[C@H]8O[C@H]7C[C@H]6O[C@@]5(C)C/C=C\[C@H]4O[C@H]3C[C@H]2O1 | > 10 µM and 1 µM
2 | CNC(=O)OCC[N+](C)(C)C [CAS_14721-69-8] | 0.0052 µM
3 | C[N+](C)(C)CCCCCC[N+](C)(C)C [Hexamethoniumdibromide] | > 10 µM
4 | CN1[C@@H](C[C@@H](O)c2ccccc2)CCC[C@H]1CC(=O)c1ccccc1 [Lobeline] | 0.0155 µM
5 | O=C1N(Cc2ccccc2)C2C[S+]3CCCC3C2N1Cc1ccccc1 (stereo unspecified) [NSC_441310] | > 10 µM
6 | COc1cc2c3cc1Oc1cc(ccc1O)C[C@@H]1c4c(cc(OC)c(O)c4Oc4ccc(cc4)C[C@@H]3N(C)CC2)CC[N+]1(C)C [Tubocurarine,d] | 1 µM and 0.282 µM

Source: BindingDB's records for PubMed 8035312 (University of California, 1994)
